Source: ChEMBL document CHEMBL3351699, “Diarylthiazole: an antimycobacterial scaffold potentially targeting PrrB-PrrA two-component system” (J Med Chem, 2014)
pIC50: −log10 of the molar value. Values after ≈ are worked out from the molar mass of the structure shown.

Columns and labels:
[1] = system: Mycobacterium tuberculosis; test: Antimicrobial activity against clinical isolate Mycobacterium tuberculosis Harlingen assessed as growth inhibition after 7 days by turbidometry; assay type: functional; conditions: 168 h
[2] = system: Mycobacterium tuberculosis; test: Antimicrobial activity against Mycobacterium tuberculosis H37Rv ATCC 27294 assessed as growth inhibition after 5 days by microdilution method; assay type: functional; conditions: H37Rv ATCC 27294, 120 h
[3] = system: Mycobacterium tuberculosis; test: Antimicrobial activity against clinical isolate Mycobacterium tuberculosis DKU220 assessed as growth inhibition after 7 days by turbidometry; assay type: functional; conditions: DKU220, 168 h
[4] = system: Mycobacterium tuberculosis; test: Antimicrobial activity against clinical isolate Mycobacterium tuberculosis DKU97A assessed as growth inhibition after 7 days by turbidometry; assay type: functional; conditions: 168 h
[5] = system: Mycobacterium tuberculosis; test: Antimicrobial activity against clinical isolate Mycobacterium tuberculosis H37Rv ATCC 27294 assessed as growth inhibition after 7 days by turbidometry; assay type: functional; conditions: H37Rv ATCC 27294, 168 h
[6] = system: Mycobacterium tuberculosis; test: Antimicrobial activity against clinical isolate Mycobacterium tuberculosis DKU76 assessed as growth inhibition after 7 days by turbidometry; assay type: functional; conditions: DKU76, 168 h
[7] = system: Mycobacterium tuberculosis; test: Antimicrobial activity against clinical isolate Mycobacterium tuberculosis ATCC35811 assessed as growth inhibition after 7 days by turbidometry; assay type: functional; conditions: ATCC35811, 168 h
[8] = system: Mycobacterium tuberculosis; test: Antimicrobial activity against clinical isolate Mycobacterium tuberculosis Beijing assessed as growth inhibition after 7 days by turbidometry; assay type: functional; conditions: 168 h
[9] = system: Mycobacterium tuberculosis; test: Antimicrobial activity against clinical isolate Mycobacterium tuberculosis Erdman assessed as growth inhibition after 7 days by turbidometry; assay type: functional; conditions: 168 h
[10] = system: Mycobacterium tuberculosis; test: Antimicrobial activity against clinical isolate Mycobacterium tuberculosis DKU211 assessed as growth inhibition after 7 days by turbidometry; assay type: functional; conditions: DKU211, 168 h
[11] = system: Mycobacterium tuberculosis; test: Antimicrobial activity against clinical isolate Mycobacterium tuberculosis ATCC25618 assessed as growth inhibition after 7 days by turbidometry; assay type: functional; conditions: ATCC25618, 168 h
[12] = system: Mycobacterium tuberculosis; test: Antimicrobial activity against clinical isolate Mycobacterium tuberculosis JAL assessed as growth inhibition after 7 days by turbidometry; assay type: functional; conditions: 168 h
[13] = biological target: T1, Enoyl-[acyl-carrier-protein] reductase [NADH] (Mycobacterium tuberculosis, UniProt P9WGR1); test: Inhibition of Mycobacterium tuberculosis InhA using NADH and dodecyl coA substrate by LC-MS/MS method
T1 sequence (P9WGR1 whole entry): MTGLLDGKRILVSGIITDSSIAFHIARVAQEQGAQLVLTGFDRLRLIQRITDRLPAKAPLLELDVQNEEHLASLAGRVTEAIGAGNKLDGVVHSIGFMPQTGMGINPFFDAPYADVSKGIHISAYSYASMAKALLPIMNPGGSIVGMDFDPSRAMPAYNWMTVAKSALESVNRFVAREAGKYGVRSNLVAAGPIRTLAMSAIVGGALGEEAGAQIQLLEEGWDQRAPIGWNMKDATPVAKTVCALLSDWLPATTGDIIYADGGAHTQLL

[14] = Solubility of the compound; assay type: physicochemical
[15] = system: Mycobacterium tuberculosis; test: Bactericidal activity against Mycobacterium tuberculosis H37Rv ATCC 27294 after 5 days by microdilution method; assay type: functional; conditions: H37Rv ATCC 27294, 120 h
[16] = system: Mycobacterium tuberculosis; test: Ratio of MBC for Mycobacterium tuberculosis H37Rv ATCC 27294 to MIC for Mycobacterium tuberculosis H37Rv ATCC 27294; assay type: functional

CCCc1cc(-c2nc(-c3ccc(OCC4CC4)cc3)cs2)ccn1
MIC80 [1]: 0.25 µg/mL (≈ 0.713 µM) | MIC80 [2]: 0.25 µg/mL (≈ 0.713 µM) | MIC80 [3]: 0.5 µg/mL (≈ 1.43 µM) | MIC80 [4]: 0.5 µg/mL (≈ 1.43 µM) | MIC80 [5]: 0.5 µg/mL (≈ 1.43 µM) | MIC80 [6]: 1 µg/mL (≈ 2.85 µM) | MIC80 [7]: 1 µg/mL (≈ 2.85 µM) | MIC80 [8]: 0.25 µg/mL (≈ 0.713 µM) | MIC80 [9]: 0.5 µg/mL (≈ 1.43 µM) | MIC80 [10]: 0.5 µg/mL (≈ 1.43 µM) | MIC80 [11]: 0.5 µg/mL (≈ 1.43 µM) | MIC80 [12]: 0.5 µg/mL (≈ 1.43 µM)

COCc1cc(-c2nc(-c3ccc(Cl)cc3)cs2)ccn1
MIC80 [2]: 4 µg/mL (≈ 12.6 µM)

CCCc1cc(-c2ncc(-c3ccncc3)s2)ccn1
MIC80 [2]: 32 µg/mL (≈ 114 µM)

CCCc1cc(-c2nc(-c3ccc(Cl)cc3)c(C(=O)OCC)s2)ccn1
MIC80 [2]: > 32 µg/mL

CCCc1cc(-c2nc(-c3ccnc(OCCN(C)C)c3)cs2)ccn1
MIC80 [2]: 8 µg/mL (≈ 21.7 µM)

Clc1ccc(-c2csc(-c3ccnc(N4CCOCC4)c3)n2)cc1
MIC80 [2]: > 32 µg/mL

Clc1ccc(-c2csc(-c3ccnc(C4CC4)c3)n2)cc1
MIC80 [2]: 4 µg/mL (≈ 12.8 µM)

CO[C@H]1/C=C/O[C@@]2(C)Oc3c(C)c(O)c4c(O)c(c(/C=N/N5CCN(C)CC5)c(O)c4c3C2=O)NC(=O)/C(C)=C\C=C\[C@H](C)[C@H](O)[C@@H](C)[C@@H](O)[C@@H](C)[C@H](OC(C)=O)[C@@H]1C [RIFAMPIN]
MIC80 [1]: 0.003 µg/mL (≈ 0.00365 µM) | MIC80 [3]: 0.003 µg/mL (≈ 0.00365 µM) | MIC80 [4]: 0.003 µg/mL (≈ 0.00365 µM) | MIC80 [5]: 0.007 µg/mL (≈ 0.00851 µM) | pIC50 [13]: 7.52 | MIC80 [6]: 0.003 µg/mL (≈ 0.00365 µM) | MIC80 [7]: 0.003 µg/mL (≈ 0.00365 µM) | MIC80 [8]: 0.003 µg/mL (≈ 0.00365 µM) | MIC80 [9]: 0.003 µg/mL (≈ 0.00365 µM) | MIC80 [10]: 0.003 µg/mL (≈ 0.00365 µM) | MIC80 [11]: 0.003 µg/mL (≈ 0.00365 µM) | MIC80 [12]: 0.003 µg/mL (≈ 0.00365 µM)

CCCc1cc(-c2nc(-c3ccnc(O[C@H]4CCOC4)c3)cs2)ccn1
MIC80 [2]: 2 µg/mL (≈ 5.44 µM)

CCCc1cc(-c2csc(-c3ccnc(CCC)c3)n2)ccn1
MIC80 [2]: 0.25 µg/mL (≈ 0.773 µM)

CCCc1cc(-c2nc(-c3ccc(C(=O)O)cc3)cs2)ccn1
MIC80 [2]: 16 µg/mL (≈ 49.3 µM)

CCCc1cc(-c2nc(-c3ccc(OCCN(C)C)cc3)cs2)ccn1
MIC80 [2]: 16 µg/mL (≈ 43.5 µM) | solubility [14]: 279 µM (≈ 102 µg/mL)

CCCc1cc(-c2nc(-c3ccc(OCCN4CCCC4)cc3)cs2)ccn1
MIC80 [2]: 4.9 µg/mL (≈ 12.5 µM) | MBC [15]: 4.9 µg/mL (≈ 12.5 µM) | solubility [14]: 155 µM (≈ 60.8 µg/mL) | Ratio [16]: 1

CCCc1cc(-c2nc(-c3ccc(OC)cc3)cs2)ccn1
MIC80 [2]: 1 µg/mL (≈ 3.22 µM)

NNC(=O)c1ccncc1 [ISONIAZID]
MIC80 [1]: 0.06 µg/mL (≈ 0.438 µM) | MIC80 [3]: 0.06 µg/mL (≈ 0.438 µM) | MIC80 [4]: 0.06 µg/mL (≈ 0.438 µM) | MIC80 [5]: 0.06 µg/mL (≈ 0.438 µM) | MIC80 [6]: 0.06 µg/mL (≈ 0.438 µM) | MIC80 [7]: 0.06 µg/mL (≈ 0.438 µM) | MIC80 [8]: 0.06 µg/mL (≈ 0.438 µM) | MIC80 [9]: 0.06 µg/mL (≈ 0.438 µM) | MIC80 [10]: 0.06 µg/mL (≈ 0.438 µM) | MIC80 [11]: 0.06 µg/mL (≈ 0.438 µM) | MIC80 [12]: 0.06 µg/mL (≈ 0.438 µM)

CCCc1cc(-c2nc(-c3ccnc(OC)c3)cs2)ccn1
MIC80 [2]: 0.2 µg/mL (≈ 0.642 µM)

CCCc1cc(-c2nc(-c3ccccc3F)cs2)ccn1
MIC80 [2]: 2 µg/mL (≈ 6.7 µM)

CCCc1cc(-c2nc(-c3ccc(Cl)cc3)c(C(N)=O)s2)ccn1
MIC80 [2]: > 32 µg/mL

CCCc1cc(-c2nc(-c3ccc(OCCOC)cc3)cs2)ccn1
MIC80 [2]: 1 µg/mL (≈ 2.82 µM)

CCCc1cc(-c2nc(-c3ccccc3)cs2)ccn1
MIC80 [2]: 1 µg/mL (≈ 3.57 µM)

CCc1cc(-c2nc(-c3ccc(Cl)cc3)cs2)ccn1
MIC80 [2]: 2 µg/mL (≈ 6.65 µM)

CCCc1cc(-c2nc(-c3cccc(F)c3)cs2)ccn1
MIC80 [2]: 1 µg/mL (≈ 3.35 µM)

CCNc1cc(-c2nc(-c3ccc(Cl)cc3)cs2)ccn1
MIC80 [2]: 8 µg/mL (≈ 25.3 µM)

Clc1ccc(-c2csc(-c3ccnc(OCC4CC4)c3)n2)cc1
MIC80 [2]: 2 µg/mL (≈ 5.83 µM)
